Test results as given in ChEMBL document CHEMBL5608163, “Structure modification of anoplin for fighting resistant bacteria” (Eur J Med Chem, 2024).
Converted amounts (≈) assume the structure as drawn. Bridge positions count the residues as written; N and C are the ends. Square brackets hold non-standard residues; d marks the D form. Peptide text beside a SMILES is read from it. I, II: the chains in the order shown. * marks the point of attachment. 2Nal = N[C@@H](Cc1ccc2ccccc2c1)C(=O)O; hLeu = CC(C)CC[C@H](N)C(=O)O; Lauroyl = CCCCCCCCCCCC(=O)*; Decanoyl = CCCCCCCCCC(=O)*; Octanoyl = CCCCCCCC(=O)*; Nva = CCC[C@H](N)C(=O)O; Hexanoyl = CCCCCC(=O)*; Butyryl = CCCC(=O)*

How the values were obtained:
Escherichia coli [1] = experiment: Antimicrobial activity against Escherichia coli ATCC 25922 assessed as reduction in microbial growth measured after 24 hrs by CLSI based broth microdilution method; type: functional
Erythrocyte = experiment: Hemolytic activity in human erythrocytes incubated for 1 hr by ELISA reader analysis; type: toxicity, cell-based
Staphylococcus aureus = experiment: Antibacterial activity against Staphylococcus aureus ATCC 25923 assessed as reduction in bacterial cell growth incubated for 16 to 24 hrs by CLSI-protocol based Mueller-Hinton Broth micro-dilution method; type: functional; settings: time 16-24 hrs
Bacillus subtilis = experiment: Antibacterial activity against Bacillus subtilis ATCC 23857 assessed as reduction in bacterial cell growth incubated for 16 to 24 hrs by CLSI-protocol based Mueller-Hinton Broth micro-dilution method; type: functional; settings: time 16-24 hrs
Escherichia coli [2] = experiment: Antibacterial activity against Escherichia coli ATCC 25922 assessed as reduction in bacterial cell growth incubated for 16 to 24 hrs by CLSI-protocol based Mueller-Hinton Broth micro-dilution method; type: functional; settings: time 16-24 hrs
Pseudomonas aeruginosa = experiment: Antibacterial activity against Pseudomonas aeruginosa ATCC 27853 assessed as reduction in bacterial cell growth incubated for 16 to 24 hrs by CLSI-protocol based Mueller-Hinton Broth micro-dilution method; type: functional; settings: time 16-24 hrs
Klebsiella pneumoniae = experiment: Antibacterial activity against Klebsiella pneumoniae ATCC 700603 assessed as reduction in bacterial cell growth incubated for 16 to 24 hrs by CLSI-protocol based Mueller-Hinton Broth micro-dilution method; type: functional; settings: time 16-24 hrs

Compound | MIC (Escherichia coli [1]) [µM] | HC10 (Erythrocyte) [µM] | MIC (Staphylococcus aureus) [µM] | MIC (Bacillus subtilis) [µM] | MIC (Escherichia coli [2]) [µM] | MIC (Pseudomonas aeruginosa) [µM] | MIC (Klebsiella pneumoniae) [µM]
CCC[C@H](NC(=O)[C@H](CC(C)C)NC(=O)[C@@H](NC(=O)[C@H](CCCCN)NC(=O)[C@H](Cc1ccc2ccccc2c1)NC(=O)[C@H](CCCNC(=N)N)NC(=O)[C@H](CCCCN)NC(=O)[C@H](CC(C)C)NC(=O)[C@H](CCC)NC(=O)CN)[C@@H](C)O)C(N)=O (H-G[Nva]LKR[2Nal]KTL[Nva]-NH2) | 100 | > 500 |  |  |  |  | 
CCC[C@H](NC(=O)[C@H](CCC)NC(=O)[C@@H](NC(=O)[C@H](CCCCN)NC(=O)[C@@H](NC(=O)[C@H](CCCNC(=N)N)NC(=O)[C@H](CCCCN)NC(=O)[C@H](CCC)NC(=O)[C@H](CCC)NC(=O)CN)[C@@H](C)CC)[C@@H](C)O)C(N)=O (H-G[Nva][Nva]KRIKT[Nva][Nva]-NH2) | > 200 | > 500 |  |  |  |  | 
CCC[C@H](NC(=O)[C@H](CCC)NC(=O)[C@@H](NC(=O)[C@H](CCCCN)NC(=O)[C@H](Cc1ccc2ccccc2c1)NC(=O)[C@H](CCCNC(=N)N)NC(=O)[C@H](CCCCN)NC(=O)[C@H](CCC)NC(=O)[C@H](CCC)NC(=O)CN)[C@@H](C)O)C(N)=O (H-G[Nva][Nva]KR[2Nal]KT[Nva][Nva]-NH2) | > 200 | > 500 |  |  |  |  | 
CC[C@H](C)[C@H](NC(=O)[C@H](CCCNC(=N)N)NC(=O)[C@H](CCCCN)NC(=O)[C@H](CC(C)C)NC(=O)[C@H](CCC(C)C)NC(=O)CN)C(=O)N[C@@H](CCCCN)C(=O)N[C@H](C(=O)N[C@@H](CC(C)C)C(=O)N[C@@H](CCC(C)C)C(N)=O)[C@@H](C)O (H-G[hLeu]LKRIKTL[hLeu]-NH2) | 12.5 | 380 |  |  |  |  | 
CC[C@H](C)[C@H](NC(=O)[C@H](CCCNC(=N)N)NC(=O)[C@H](CCCCN)NC(=O)[C@H](CCC(C)C)NC(=O)[C@H](CCC(C)C)NC(=O)CN)C(=O)N[C@@H](CCCCN)C(=O)N[C@H](C(=O)N[C@@H](CCC(C)C)C(=O)N[C@@H](CCC(C)C)C(N)=O)[C@@H](C)O (H-G[hLeu][hLeu]KRIKT[hLeu][hLeu]-NH2) | 12.5 | 125 |  |  |  |  | 
CCCC(=O)NCC(=O)N[C@@H](CC(C)C)C(=O)N[C@@H](CC(C)C)C(=O)N[C@@H](CCCCN)C(=O)N[C@@H](CCCNC(=N)N)C(=O)N[C@H](C(=O)N[C@@H](CCCCN)C(=O)N[C@H](C(=O)N[C@@H](CC(C)C)C(=O)N[C@@H](CC(C)C)C(=O)NCCCC[C@H](NC(=O)[C@H](CCCCNC(=O)[C@H](CC(C)C)NC(=O)[C@H](CC(C)C)NC(=O)[C@@H](NC(=O)[C@H](CCCCN)NC(=O)[C@@H](NC(=O)[C@H](CCCNC(=N)N)NC(=O)[C@H](CCCCN)NC(=O)[C@H](CC(C)C)NC(=O)[C@H](CC(C)C)NC(=O)CNC(=O)CCC)[C@@H](C)CC)[C@@H](C)O)NC(=O)[C@H](CC(C)C)NC(=O)[C@H](CC(C)C)NC(=O)[C@@H](NC(=O)[C@H](CCCCN)NC(=O)[C@@H](NC(=O)[C@H](CCCNC(=N)N)NC(=O)[C@H](CCCCN)NC(=O)[C@H](CC(C)C)NC(=O)[C@H](CC(C)C)NC(=O)CNC(=O)CCC)[C@@H](C)CC)[C@@H](C)O)C(N)=O)[C@@H](C)O)[C@@H](C)CC (I: Butyryl-GLLKRIKTLLKK-NH2 / II: Butyryl-GLLKRIKTLL / III: Butyryl-GLLKRIKTLL; amide I:11-III:C, I:12-II:C) |  |  | 4 (≈ 15.6 µg/mL) | 4 (≈ 15.6 µg/mL) | 4 (≈ 15.6 µg/mL) | 2 (≈ 7.79 µg/mL) | 4 (≈ 15.6 µg/mL)
CCCCCCCCCC(=O)NCC(=O)N[C@@H](CC(C)C)C(=O)N[C@@H](CC(C)C)C(=O)N[C@@H](CCCCN)C(=O)N[C@@H](CCCNC(=N)N)C(=O)N[C@H](C(=O)N[C@@H](CCCCN)C(=O)N[C@H](C(=O)N[C@@H](CC(C)C)C(=O)N[C@@H](CC(C)C)C(=O)NCCCC[C@H](NC(=O)[C@H](CCCCNC(=O)[C@H](CC(C)C)NC(=O)[C@H](CC(C)C)NC(=O)[C@@H](NC(=O)[C@H](CCCCN)NC(=O)[C@@H](NC(=O)[C@H](CCCNC(=N)N)NC(=O)[C@H](CCCCN)NC(=O)[C@H](CC(C)C)NC(=O)[C@H](CC(C)C)NC(=O)CNC(=O)CCCCCCCCC)[C@@H](C)CC)[C@@H](C)O)NC(=O)[C@H](CC(C)C)NC(=O)[C@H](CC(C)C)NC(=O)[C@@H](NC(=O)[C@H](CCCCN)NC(=O)[C@@H](NC(=O)[C@H](CCCNC(=N)N)NC(=O)[C@H](CCCCN)NC(=O)[C@H](CC(C)C)NC(=O)[C@H](CC(C)C)NC(=O)CNC(=O)CCCCCCCCC)[C@@H](C)CC)[C@@H](C)O)C(N)=O)[C@@H](C)O)[C@@H](C)CC (I: Decanoyl-GLLKRIKTLLKK-NH2 / II: Decanoyl-GLLKRIKTLL / III: Decanoyl-GLLKRIKTLL; amide I:11-III:C, I:12-II:C) |  |  | 128 (≈ 531 µg/mL) | 56 (≈ 232 µg/mL) | 128 (≈ 531 µg/mL) | 32 (≈ 133 µg/mL) | 32 (≈ 133 µg/mL)
CC[C@H](C)[C@H](NC(=O)[C@H](CCCNC(=N)N)NC(=O)[C@H](CCCCN)NC(=O)[C@H](CC(C)C)NC(=O)[C@H](CC(C)C)NC(=O)CN)C(=O)N[C@@H](CCCCN)C(=O)N[C@H](C(=O)N[C@@H](CC(C)C)C(=O)N[C@@H](CC(C)C)C(=O)NCCCC[C@H](NC(=O)[C@H](CCCCNC(=O)[C@H](CC(C)C)NC(=O)[C@H](CC(C)C)NC(=O)[C@@H](NC(=O)[C@H](CCCCN)NC(=O)[C@@H](NC(=O)[C@H](CCCNC(=N)N)NC(=O)[C@H](CCCCN)NC(=O)[C@H](CC(C)C)NC(=O)[C@H](CC(C)C)NC(=O)CN)[C@@H](C)CC)[C@@H](C)O)NC(=O)[C@H](CC(C)C)NC(=O)[C@H](CC(C)C)NC(=O)[C@@H](NC(=O)[C@H](CCCCN)NC(=O)[C@@H](NC(=O)[C@H](CCCNC(=N)N)NC(=O)[C@H](CCCCN)NC(=O)[C@H](CC(C)C)NC(=O)[C@H](CC(C)C)NC(=O)CN)[C@@H](C)CC)[C@@H](C)O)C(N)=O)[C@@H](C)O (I: H-GLLKRIKTLLKK-NH2 / II: H-GLLKRIKTLL / III: H-GLLKRIKTLL; amide I:11-III:C, I:12-II:C) |  |  | 4 (≈ 14.7 µg/mL) | 4 (≈ 14.7 µg/mL) | 8 (≈ 29.5 µg/mL) | 4 (≈ 14.7 µg/mL) | 4 (≈ 14.7 µg/mL)
CCCCCC(=O)NCC(=O)N[C@@H](CC(C)C)C(=O)N[C@@H](CC(C)C)C(=O)N[C@@H](CCCCN)C(=O)N[C@@H](CCCNC(=N)N)C(=O)N[C@H](C(=O)N[C@@H](CCCCN)C(=O)N[C@H](C(=O)N[C@@H](CC(C)C)C(=O)N[C@@H](CC(C)C)C(=O)NCCCC[C@H](NC(=O)[C@H](CCCCNC(=O)[C@H](CC(C)C)NC(=O)[C@H](CC(C)C)NC(=O)[C@@H](NC(=O)[C@H](CCCCN)NC(=O)[C@@H](NC(=O)[C@H](CCCNC(=N)N)NC(=O)[C@H](CCCCN)NC(=O)[C@H](CC(C)C)NC(=O)[C@H](CC(C)C)NC(=O)CNC(=O)CCCCC)[C@@H](C)CC)[C@@H](C)O)NC(=O)[C@H](CC(C)C)NC(=O)[C@H](CC(C)C)NC(=O)[C@@H](NC(=O)[C@H](CCCCN)NC(=O)[C@@H](NC(=O)[C@H](CCCNC(=N)N)NC(=O)[C@H](CCCCN)NC(=O)[C@H](CC(C)C)NC(=O)[C@H](CC(C)C)NC(=O)CNC(=O)CCCCC)[C@@H](C)CC)[C@@H](C)O)C(N)=O)[C@@H](C)O)[C@@H](C)CC (I: Hexanoyl-GLLKRIKTLLKK-NH2 / II: Hexanoyl-GLLKRIKTLL / III: Hexanoyl-GLLKRIKTLL; amide I:11-III:C, I:12-II:C) |  |  | 16 (≈ 63.6 µg/mL) | 8 (≈ 31.8 µg/mL) | 16 (≈ 63.6 µg/mL) | 8 (≈ 31.8 µg/mL) | 32 (≈ 127 µg/mL)
CCCCCCCCCCCC(=O)NCC(=O)N[C@@H](CC(C)C)C(=O)N[C@@H](CC(C)C)C(=O)N[C@@H](CCCCN)C(=O)N[C@@H](CCCNC(=N)N)C(=O)N[C@H](C(=O)N[C@@H](CCCCN)C(=O)N[C@H](C(=O)N[C@@H](CC(C)C)C(=O)N[C@@H](CC(C)C)C(=O)NCCCC[C@H](NC(=O)[C@H](CCCCNC(=O)[C@H](CC(C)C)NC(=O)[C@H](CC(C)C)NC(=O)[C@@H](NC(=O)[C@H](CCCCN)NC(=O)[C@@H](NC(=O)[C@H](CCCNC(=N)N)NC(=O)[C@H](CCCCN)NC(=O)[C@H](CC(C)C)NC(=O)[C@H](CC(C)C)NC(=O)CNC(=O)CCCCCCCCCCC)[C@@H](C)CC)[C@@H](C)O)NC(=O)[C@H](CC(C)C)NC(=O)[C@H](CC(C)C)NC(=O)[C@@H](NC(=O)[C@H](CCCCN)NC(=O)[C@@H](NC(=O)[C@H](CCCNC(=N)N)NC(=O)[C@H](CCCCN)NC(=O)[C@H](CC(C)C)NC(=O)[C@H](CC(C)C)NC(=O)CNC(=O)CCCCCCCCCCC)[C@@H](C)CC)[C@@H](C)O)C(N)=O)[C@@H](C)O)[C@@H](C)CC (I: Lauroyl-GLLKRIKTLLKK-NH2 / II: Lauroyl-GLLKRIKTLL / III: Lauroyl-GLLKRIKTLL; amide I:11-III:C, I:12-II:C) |  |  | 64 (≈ 271 µg/mL) | 256 (≈ 1080 µg/mL) | 64 (≈ 271 µg/mL) | 64 (≈ 271 µg/mL) | 64 (≈ 271 µg/mL)
CCCCCCCC(=O)NCC(=O)N[C@@H](CC(C)C)C(=O)N[C@@H](CC(C)C)C(=O)N[C@@H](CCCCN)C(=O)N[C@@H](CCCNC(=N)N)C(=O)N[C@H](C(=O)N[C@@H](CCCCN)C(=O)N[C@H](C(=O)N[C@@H](CC(C)C)C(=O)N[C@@H](CC(C)C)C(=O)NCCCC[C@H](NC(=O)[C@H](CCCCNC(=O)[C@H](CC(C)C)NC(=O)[C@H](CC(C)C)NC(=O)[C@@H](NC(=O)[C@H](CCCCN)NC(=O)[C@@H](NC(=O)[C@H](CCCNC(=N)N)NC(=O)[C@H](CCCCN)NC(=O)[C@H](CC(C)C)NC(=O)[C@H](CC(C)C)NC(=O)CNC(=O)CCCCCCC)[C@@H](C)CC)[C@@H](C)O)NC(=O)[C@H](CC(C)C)NC(=O)[C@H](CC(C)C)NC(=O)[C@@H](NC(=O)[C@H](CCCCN)NC(=O)[C@@H](NC(=O)[C@H](CCCNC(=N)N)NC(=O)[C@H](CCCCN)NC(=O)[C@H](CC(C)C)NC(=O)[C@H](CC(C)C)NC(=O)CNC(=O)CCCCCCC)[C@@H](C)CC)[C@@H](C)O)C(N)=O)[C@@H](C)O)[C@@H](C)CC (I: Octanoyl-GLLKRIKTLLKK-NH2 / II: Octanoyl-GLLKRIKTLL / III: Octanoyl-GLLKRIKTLL; amide I:11-III:C, I:12-II:C) |  |  | 32 (≈ 130 µg/mL) | 32 (≈ 130 µg/mL) | 32 (≈ 130 µg/mL) | 32 (≈ 130 µg/mL) | 128 (≈ 520 µg/mL)
